Data published in patent publication US20250228800A1, “Treatment of nasal cavity inflammation and mucus hypersecretion” (priority 2024, published 2025).
Read-outs that look alike come from different tables or passages of the source.

How the values were obtained:
tongue = assay: Oral cavity screen, 15 mg of white crystals on dorsal surface of the tongue; type: in vivo, human
Procedure: The first screening tests conducted in this discovery to assess candidates that produce refreshing cooling in the oral cavity. Test agents, prepared as 15 mg of white crystals, were placed on the dorsal surface of the tongue. The chemical structures and identifying characteristics are in Table 1.

philtrum skin = assay: Philtrum skin assay of cooling; type: in vivo, human; settings: for Comments (sensation) / Duration (min) of cooling: 8% wt/vol gel on philtrum skin
From the text: Wei (2012) proposed the use of the skin on the philtrum as a test site for cooling activity of chemicals. The philtrum is the midline groove above the upper lip border and vermilion and is the drug application site. The gel is placed on the philtrum with a cotton-tipped applicator up to the nasolabial folds and sometimes, but not deliberately, on the lower nostrils (subnasale). Cold receptors densely innervate the philtrum skin, second only to the surfaces of the eyeball, nasal surfaces, and anogenitalia. The lips also have a high density of “cold spots.” This is called the philtrum assay. The test substance is dissolved in a carrier, such as solvent, gel, or ointment and applied to the philtrum, a surface area of ˜10 to 12 cm2. The subject records sensations on the philtrum and environs on a scale of 0 to 3, as: 0=no changes in sensation, 1=a slight feeling of coolness, cold or tingling, 2=a clearcut feeling of coolness or cold and 3=a robust feeling of coolness and cold. The intervals for measurements are usually 0, 1, 3, 5 min after application, and at then 5 min or longer intervals thereafter until two successive zeros are obtained. Test substances are applied to the philtrum using a cotton-tipped applicator (Puritan Cotton-tipped applicators, or Q-Tips). The applicator tip is dipped into a reservoir bottle containing the liquid or semi-liquid (gel) test substance. The composition adhering to the cotton (about 0.2 mL) is put on the skin. A subject can practice the method in front of a mirror with a high-intensity light source.

skin = settings: for treatment of skin dysesthesia (insect bites, skin allergies, thermal injury): topical gel on skin
TRPM8 [1] = target: T1, TRPM8 (Homo sapiens, UniProt Q7Z2W7); settings: Ref#2; cited from earlier work
TRPM8 [2] = target: T1, TRPM8; settings: Ref#3; cited from earlier work
TRPM8 [3] = target: T1, TRPM8; settings: Ref#6; cited from earlier work
TRPM8 [4] = target: T1, TRPM8; assay: Bioassay of FEMA 4557 (BUDA) on TRPM8, Prof. Lee laboratory, Duke University; type: cell-based
TRPA1 = target: T2, TRPA1 (Homo sapiens, UniProt O75762); assay: Bioassay in cells transfected with TRPA1, Prof. Lee laboratory, Duke University; type: cell-based
T2 construct: expressed in transfected cells
From the text: Data from the laboratory of Prof. Seok-Yong Lee's at Duke University.
Seok-Yong Lee at Duke University (FIG. 3).

nasal cavity = assay: Study 1: NasoNeb nebulizer delivery to nasal cavity of subjects with rhinitis; type: in vivo, human
Procedure: Study 1. In this first study, a specialized nebulizer with an electronically controlled compressor was used to deliver FEMA 4557 to the nasal cavity of subjects with rhinitis. A typical dosage regimen was a 1.0 to 1.5% wt/vol solution (10 to 15 mg/mL) of FEMA 4557 over a 3 to 5 sec delivery period. […] No attempt was made to differentiate between delivered versus retained dose. The severity of rhinitis was quantified by gravimetric measurement of secretions and exudates from the nasal cavity (FIG. 15). Subjects were instructed to blow into a pre-weighed paper tissue and record the weight of the tissue after blowing. The tissue was inspected and marked as clear, with streaks of exudates, or dense gel. The nasal blowouts fell into three distinct categories of weights that were easy to recognize. […] The weight of the blowouts provides an objective index of nasal cavity inflammation. Nasal secretions were inhibited by topical administration of FEMA 4557, dissolved at 15 mg/ml in an ethanol, polysorbate 80, and saline mixture (FIG. 16). A Nasoneb® apparatus delivered FEMA 4557 into the nasal cavity (FIG. 13). The test substance was sprayed into the nasal cavity for 5 sec at t=0, 2, and 5 hr. The data points were fitted by linear regression (GraphPad Prism), and the 10-hr secretion was measured as ([…]). The results were vehicle 3.16±0.10 g and FEMA 4557 1.86±0.07 g, with n=6 and 5 observations per group, respectively. […] Inhibition of nasal secretions by topical administration of FEMA 4557, 15 mg/ml, delivered into the nasal cavity, is further illustrated by plotting the individual blowout units, in g per blowout FIG. 17. The test substances were sprayed into the nasal cavity for 5 sec at t=0, 2, and 5 hr. […] Thus, the anti-inflammatory effect of FEMA 4557 is further confirmed.

[5] = target: mouse cold-menthol receptor TRPM8 (Mus musculus, UniProt Q8R4D5); settings: Ref#1; cited from earlier work
mouse cold-menthol receptor TRPM8, sequence (Q8R4D5 whole entry): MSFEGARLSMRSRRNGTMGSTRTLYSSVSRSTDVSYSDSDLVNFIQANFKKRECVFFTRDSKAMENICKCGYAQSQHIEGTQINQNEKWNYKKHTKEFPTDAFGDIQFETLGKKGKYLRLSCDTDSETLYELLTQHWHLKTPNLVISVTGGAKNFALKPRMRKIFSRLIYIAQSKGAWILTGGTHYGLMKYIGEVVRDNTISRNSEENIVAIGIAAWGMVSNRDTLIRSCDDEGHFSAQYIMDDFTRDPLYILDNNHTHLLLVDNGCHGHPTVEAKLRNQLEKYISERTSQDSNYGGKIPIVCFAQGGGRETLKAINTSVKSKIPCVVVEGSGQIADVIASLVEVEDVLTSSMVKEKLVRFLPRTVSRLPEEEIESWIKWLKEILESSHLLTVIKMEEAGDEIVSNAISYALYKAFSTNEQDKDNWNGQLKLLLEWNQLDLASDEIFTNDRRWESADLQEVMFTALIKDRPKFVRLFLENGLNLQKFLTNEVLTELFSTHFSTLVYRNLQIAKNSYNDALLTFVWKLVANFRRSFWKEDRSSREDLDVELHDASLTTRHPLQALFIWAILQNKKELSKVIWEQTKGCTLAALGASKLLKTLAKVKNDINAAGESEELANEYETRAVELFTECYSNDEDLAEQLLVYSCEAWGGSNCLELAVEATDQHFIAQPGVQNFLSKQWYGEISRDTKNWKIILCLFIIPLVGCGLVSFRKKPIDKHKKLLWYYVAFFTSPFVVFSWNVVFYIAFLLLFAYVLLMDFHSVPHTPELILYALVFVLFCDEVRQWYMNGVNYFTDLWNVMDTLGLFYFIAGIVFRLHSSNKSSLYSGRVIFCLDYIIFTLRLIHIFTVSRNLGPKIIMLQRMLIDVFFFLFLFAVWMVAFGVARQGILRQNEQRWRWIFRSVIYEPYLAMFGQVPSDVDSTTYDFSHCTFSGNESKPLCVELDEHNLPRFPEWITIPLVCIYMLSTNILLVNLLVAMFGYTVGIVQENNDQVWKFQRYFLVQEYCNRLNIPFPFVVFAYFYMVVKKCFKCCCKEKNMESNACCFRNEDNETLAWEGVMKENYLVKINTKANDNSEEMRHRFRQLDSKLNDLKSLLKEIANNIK

T1 sequence (Q7Z2W7 whole entry, species assumed): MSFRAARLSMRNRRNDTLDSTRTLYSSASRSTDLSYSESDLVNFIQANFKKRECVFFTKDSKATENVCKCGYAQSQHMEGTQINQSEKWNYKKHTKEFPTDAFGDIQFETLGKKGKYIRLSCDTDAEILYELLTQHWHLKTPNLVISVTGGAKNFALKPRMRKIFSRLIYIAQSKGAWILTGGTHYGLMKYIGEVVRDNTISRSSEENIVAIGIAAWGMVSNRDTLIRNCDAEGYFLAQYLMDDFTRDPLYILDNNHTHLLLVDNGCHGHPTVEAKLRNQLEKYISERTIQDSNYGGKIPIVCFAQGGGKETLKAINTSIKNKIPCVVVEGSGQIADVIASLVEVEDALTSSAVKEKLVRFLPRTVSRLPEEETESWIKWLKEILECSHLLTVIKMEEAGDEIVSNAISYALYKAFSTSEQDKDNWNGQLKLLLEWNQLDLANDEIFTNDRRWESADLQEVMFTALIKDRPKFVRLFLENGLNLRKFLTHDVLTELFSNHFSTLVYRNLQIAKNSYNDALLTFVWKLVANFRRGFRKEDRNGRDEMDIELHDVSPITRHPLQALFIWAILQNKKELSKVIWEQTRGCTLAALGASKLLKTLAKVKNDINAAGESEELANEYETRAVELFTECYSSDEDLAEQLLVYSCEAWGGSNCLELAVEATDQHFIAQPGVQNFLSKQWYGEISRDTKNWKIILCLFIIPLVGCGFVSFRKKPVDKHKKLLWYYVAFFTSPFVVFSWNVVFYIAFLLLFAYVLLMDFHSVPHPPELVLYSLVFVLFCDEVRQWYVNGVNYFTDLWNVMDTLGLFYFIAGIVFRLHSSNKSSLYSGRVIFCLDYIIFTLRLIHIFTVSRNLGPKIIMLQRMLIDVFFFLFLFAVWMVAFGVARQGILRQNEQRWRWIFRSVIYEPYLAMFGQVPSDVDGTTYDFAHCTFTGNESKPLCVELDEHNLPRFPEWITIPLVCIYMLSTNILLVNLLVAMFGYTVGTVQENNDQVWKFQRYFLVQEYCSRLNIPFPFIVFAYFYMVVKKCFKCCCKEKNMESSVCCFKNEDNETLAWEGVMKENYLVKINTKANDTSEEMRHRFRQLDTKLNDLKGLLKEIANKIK
T2 sequence (O75762 whole entry, species assumed): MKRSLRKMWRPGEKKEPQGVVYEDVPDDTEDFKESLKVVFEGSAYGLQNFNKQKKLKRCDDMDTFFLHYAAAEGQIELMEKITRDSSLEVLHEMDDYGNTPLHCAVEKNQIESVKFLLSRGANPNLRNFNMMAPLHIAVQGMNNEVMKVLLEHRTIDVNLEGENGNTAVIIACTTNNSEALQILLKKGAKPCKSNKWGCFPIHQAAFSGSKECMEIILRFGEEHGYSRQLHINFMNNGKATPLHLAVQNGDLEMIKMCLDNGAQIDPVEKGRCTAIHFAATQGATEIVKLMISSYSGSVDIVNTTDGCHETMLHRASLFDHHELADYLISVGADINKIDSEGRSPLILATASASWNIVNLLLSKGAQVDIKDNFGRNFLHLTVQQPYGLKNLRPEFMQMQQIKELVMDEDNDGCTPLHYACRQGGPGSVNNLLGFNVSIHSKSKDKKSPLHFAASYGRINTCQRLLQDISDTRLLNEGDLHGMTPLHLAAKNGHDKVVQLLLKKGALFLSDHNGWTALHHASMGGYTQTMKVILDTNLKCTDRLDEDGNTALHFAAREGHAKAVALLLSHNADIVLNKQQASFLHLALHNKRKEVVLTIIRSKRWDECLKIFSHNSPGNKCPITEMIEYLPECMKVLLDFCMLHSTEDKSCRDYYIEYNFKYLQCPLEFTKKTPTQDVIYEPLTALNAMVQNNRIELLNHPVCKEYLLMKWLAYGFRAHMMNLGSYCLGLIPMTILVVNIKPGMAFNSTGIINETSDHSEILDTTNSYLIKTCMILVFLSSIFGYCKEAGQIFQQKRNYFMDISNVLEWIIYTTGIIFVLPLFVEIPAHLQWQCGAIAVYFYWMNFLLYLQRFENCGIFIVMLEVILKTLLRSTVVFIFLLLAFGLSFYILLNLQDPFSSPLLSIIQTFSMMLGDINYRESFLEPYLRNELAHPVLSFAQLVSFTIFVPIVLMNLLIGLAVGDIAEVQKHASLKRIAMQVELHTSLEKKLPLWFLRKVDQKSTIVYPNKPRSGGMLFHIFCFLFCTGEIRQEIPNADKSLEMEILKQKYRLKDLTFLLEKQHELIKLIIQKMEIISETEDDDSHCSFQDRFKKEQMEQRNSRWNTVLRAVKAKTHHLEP

SMILES: COc1ccc(NC(=O)[C@@H]2C[C@H](C)CC[C@H]2C(C)C)cc1 [WS-12]
- Effects of 15 mg on tongue (duration) (tongue): ~20 min
- Effects of 15 mg on tongue (sensation) (tongue): pleasant cooling in oral cavity
- Comments (sensation) (philtrum skin): pleasant cool sensations on skin
- Duration (min) of cooling (philtrum skin): 38 ± 4 min
- treatment of skin dysesthesia (insect bites, skin allergies, thermal injury) (skin): ineffective
- EC50 (TRPM8 [1]): 0.2 µM
- EC50 (TRPM8 [2]): 22.1 µM

SMILES: CCOC(=O)CNC(=O)[C@@H]1C[C@H](C)CC[C@H]1C(C)C [WS-5]
- Effects of 15 mg on tongue (duration) (tongue): ~12 min
- Effects of 15 mg on tongue (sensation) (tongue): pleasant cooling in oral cavity
- Comments (sensation) (philtrum skin): pleasant cool sensations of skin
- Duration (min) of cooling (philtrum skin): 51 ± 4 min
- treatment of skin dysesthesia (insect bites, skin allergies, thermal injury) (skin): ineffective
- EC50 (TRPM8 [3]): 26 µM
- EC50 (TRPM8 [2]): 0.5 µM

SMILES: CNC(=O)C(C)(C(C)C)C(C)C [WS-23]
- Effects of 15 mg on tongue (duration) (tongue): too short-lived
- Effects of 15 mg on tongue (sensation) (tongue): painful cold in throat
- Effects of 15 mg on tongue (duration) (tongue; listed as 3804): ~18 min
- Comments (sensation) (philtrum skin): short duration of action, no overt cold, but more
- Duration (min) of cooling (philtrum skin): 25 ± 3 min
- treatment of skin dysesthesia (insect bites, skin allergies, thermal injury) (skin): ineffective
- EC50 (TRPM8 [3]): 1500 µM
- EC50 (TRPM8 [2]): 2.2 µM

SMILES: CCOC(=O)[C@@H](C)NC(=O)[C@@H]1C[C@H](C)CC[C@H]1C(C)C [CPS-369]
- EC50 (TRPM8 [1]): 3.6 µM
- EC50 (TRPM8 [3]): 65 µM

SMILES: CC1CCC(C(C)C)C(C(=O)OCC(O)CO)C1 (centres unmarked) [WS-30]
- EC50 (TRPM8 [1]): 5.6 µM

SMILES: CCNC(=O)[C@@H]1C[C@H](C)CC[C@H]1C(C)C [WS-3]
- Effects of 15 mg on tongue (duration) (tongue): ~8 min
- Effects of 15 mg on tongue (sensation) (tongue): pleasant cooling in oral cavity
- EC50 (TRPM8 [3]): 210 µM
- EC50 (TRPM8 [2]): 5.9 µM

SMILES: CCNC(=O)C(CC)(C(C)C)C(C)C [FEMA 4557, N-ethyl-2,2-diisopropyl butanamide]
- EC50 relative to that of l-menthol (TRPM8 [4]): about 1/30
- activity on TRPA1 (TRPA1): not active
- Effects of 15 mg on tongue (duration) (tongue): > 35 min
- average time of cooling (philtrum skin; 2% concentration): 50 min
- average time of cooling (philtrum skin; 4% concentration): 95 min
- average time of cooling (philtrum skin; 8% concentration): ≥ 175 min
- duration of cooling (philtrum skin; 8% gel, FIG. 4): ~3 h
- Duration (min) of cooling (philtrum skin): 180+ min
- irritation of the skin (philtrum skin; concentrations of up to 12% weight/volume on philtrum skin): no irritation of the skin was observed with FEMA
- 10-hr nasal secretion (avg.±s.e.m) (nasal cavity; 15 mg/mL, 5 sec at t=0, 2 and 5 hr, NasoNeb, n=5, vehicle 3.16±0.10 g): 1.86±0.07 g
- individual nasal blowouts (average±s.e.m.) (nasal cavity; 15 mg/mL, 5 sec at t=0, 2 and 5 hr, NasoNeb, n=56, vehicle 0.38±0.03 g): 0.21 ± 0.03 g
- concentration that stops stuffiness of rhinitis and inhibits phlegm secretion (nasal cavity; applied to inflamed nasal membranes): ≤ 1.5 % wt/vol
- onset of beneficial effects after delivery (nasal cavity; topical nasal delivery): ≤ 15 min
- tissue irritation or inflammation on skin (skin; human, in vivo): no tissue irritation or inflammation appeared on the skin
- duration of stopping irritation of an insect sting (skin; topical gel 8 to 16% wt/vol): ≥ 3 h
- onset of stopping irritation of an insect sting (skin; topical gel 8 to 16% wt/vol): less than 3 minutes
- topical concentration with anti-inflammatory activity on skin (skin; total dose of several mg): ≥ 5 % wt/vol
- EC50 (TRPM8 [2]): 1.6 µM

SMILES: CC(C)[C@@H]1CC[C@@H](C)C[C@H]1OCC(O)CO (some centres unmarked) [Cool 10, menthoxypropanediol]
- EC50 [5]: 6 µM

SMILES: O=C1NC(c2cccc([N+](=O)[O-])c2)=CCN1c1ccccc1O [icilin]
- EC50 (TRPM8 [3]): 7 µM

SMILES: C=CCN=C=S [AITC, allyl isothiocyanate]
- activity on TRPA1 (TRPA1): active

SMILES: CCCCCCCP(=O)(C(C)C)C(C)C [Cryosim-1, 1-diisopropyl-phosphorylheptane]
- Effects of 15 mg on tongue (sensation) (tongue): stinging, painful cold

SMILES: CC(C)OC(=O)CNC(=O)[C@@H]1C[C@H](C)CC[C@H]1C(C)C [Ax-8, p-Menthane-Gly- OiPr]
- Effects of 15 mg on tongue (duration) (tongue): ~27 min
- Effects of 15 mg on tongue (sensation) (tongue): pleasant cooling in oral cavity
